Data on 2 molecules can be found in patent publication US20120088803A1, “CONTROL AGENT FOR SOFT ROT AND CONTROL METHOD FOR THE SAME” (Ishihara Sangyo Kaisha, Ltd, priority 2009, published 2012).

Where “and” joins values, the source holds several entries; their conditions need not be identical. Identical values can stand only once.

Holding throughout (assay type): in vivo, Erwinia carotovora
Assay [1] deals with Chinese cabbage soft rot. Description: Test for disease control of Chinese cabbage, field (Example 1 / Comparative Example 1). Also noted: key to Disease incidence rate: % of examined plants that are diseased; key to Disease control value: (1 − severity treated/severity untreated) × 100; key to Disease severity: Σ(plants per class × index 0–4)/(plants examined × 4) × 100. The conditions noted are these: for Disease incidence rate / Disease severity / Disease control value: 63 days; for Disease control value: vs untreated plot; for Control effect on Chinese cabbage soft rot (in words): Table 1 test, moderate incidence conditions, fluazinam 250 g ai/10 a on soil, streptomycin 1/1000 foliage spraying. As for the experimental part: Preparation was performed using 500 g/L of 3-chloro-N-(3-chloro-5-trifluoromethyl-2-pyridyl)-alpha,alpha,alpha-trifluoro-2,6-dinit ro-p-toluidine (fluazinam (common name), Frowncide SC (trade name), manufactured by Ishihara Sangyo Kaisha, Ltd.) such that the amount of the active ingredient was 250 g ai/10 a (500 mL product/10 a), and the amount of dilution water was 150 L/10 a.
The spray solution prepared in the above was sprayed onto cultivation soil in a field such that the spraying amount was 0.25 g/m^2 (150 L/10 a), and thereafter, a mulch-sheet for agricultural use was spreaded on the soil. After planting holes for settlement (diameter: about 5 cm) were made, seedlings of Chinese cabbage (cultivar: Musou) grown for 4 weeks in a cell tray (128 holes/nursery box) were planted such that 30 seedlings were planted in one test plot having an area of 6 m^2 with three replications.
Preparation was performed by diluting streptomycin (Mycin 20 wettable powder (trade name), manufactured by Hokko Chemical Industry Co., Ltd.) with water to 1/1000.
In a field covered with a mulch-sheet for agricultural use, seedlings of Chinese cabbage (cultivar: Musou) grown in a cell tray were planted, in the same manner as in Example 1, and foliage application was performed by spraying the spray solution of streptomycin prepared in (1) (spraying amount per application: 200 L/10 a) twice (39 days and 47 days after the planting of the seedlings).
The degree of disease incidence was examined for all the plants in each test plot 63 days after the start of the test, and the disease incidence rate, the disease severity, and the disease control value were calculated according to the following equations, and the test results are shown in Table 1.
(§1) (Disease incidence rate)=[(number of diseased plants)/(number of plants examined)]*100
(§2) (Disease severity)={S [(number of diseased plants in each class into which the plants are classified according to the degree of disease)*(disease index)]/[(number of plants examined)*4]}*100
(§3) (Disease control value)={1-[(Disease severity in treated plot)/(Disease severity in untreated plot)]}*100
(§4) Incidentally, the evaluation criteria for the disease index are as follows. • (Disease index) • 0: No lesion • 1: Lesions appear only in part of outer leaves (shipment can be made). • 2: Lesions appear in outer leaves and part of head leaves (the damaged part is removed and shipment as a small size plant can be made, rated Grade B). • 3: Lesions appear in most head leaves or more (shipment cannot be made). • 4: Lesions appear in the entire plant and the plant dies.

Assay [2] relates to Chinese cabbage soft rot. Description: Test for disease control of Chinese cabbage with or without mulch-sheet, field (Example 5). Also noted: key to Disease incidence rate: % of examined plants that are diseased; key to Disease control value: (1 − severity treated / severity untreated) × 100; key to Disease severity: Σ(plants per class × index 0-4)/(plants examined × 4) × 100. The settings on record: 250 g ai/10 a; for Disease incidence rate / Disease severity / Disease control value: 150 L/10 a, Harebutai 65, 64 days; for Disease control value: vs untreated plot.
Excerpt: as §1, §2, §3, §4
Preparation was performed using 500 g/L of 3-chloro-N-(3-chloro-5-trifluoromethyl-2-pyridyl)-alpha,alpha,alpha-trifluoro-2,6-dinit ro-p-toluidine (fluazinam, Frowncide SC (trade name), manufactured by Ishihara Sangyo Kaisha, Ltd.) such that the amount of the active ingredient was 250 g ai/10 a (500 mL product/10 a), and the amount of dilution water was 150 L/10 a.
A mulch-sheet for agricultural use was spreaded on soil, and planting holes for settlement (diameter: about 5 cm) were made, and then, the spray solution prepared in the above was sprayed onto the planting holes such that the spraying amount was 0.25 g/m^2 (150 L/10 a), followed by air-drying. Then, seedlings of Chinese cabbage (cultivar: Harebutai 65) grown for 4 weeks in a cell tray (128 holes/nursery box) were planted such that 19 seedlings were planted in one test plot having an area of 2.4 m^2 with two replications.
The spray solution prepared in the above was sprayed onto the planting holes such that the spraying amount was 0.25 g/m^2 (150 L/10 a) without spreading a mulch-sheet for agricultural use, followed by air-drying. Then, seedlings of Chinese cabbage (cultivar: Harebutai 65) grown for 4 weeks in a cell tray (128 holes/nursery box) were planted such that 19 seedlings were planted in one test plot having an area of 2.4 m^2 with two replications.
The degree of disease incidence was examined for all the plants in each test plot 64 days after the start of the test, and the disease severity and the disease control value were evaluated. Incidentally, the disease severity and the disease control value were obtained in the same manner as described above.

For assay [3], the system named is Chinese cabbage soft rot. Description: Test for disease control of Chinese cabbage, field (Example 2). Also noted: key to Disease incidence rate: % of examined plants that are diseased; key to Disease control value: (1 − severity treated/severity untreated) × 100; key to Disease severity: Σ(diseased plants per class × index 0-4)/(plants × 4) × 100. The conditions noted are these: 250 g ai/10 a, 50 days.
Excerpt: as §1, §2, §3, §4
Preparation was performed using 500 g/L of • 3-chloro-N-(3-chloro-5-trifluoromethyl-2-pyridyl)-alpha,alpha,alpha-trifluoro-2,6-dinit ro-p-toluidine (fluazinam, Frowncide SC (trade name), manufactured by Ishihara Sangyo Kaisha, Ltd.) such that the amount of the active ingredient was 250 g ai/10 a (500 mL product/10 a), and the amount of dilution water was 150 L/10 a.
A mulch-sheet for agricultural use was spreaded on soil, and planting holes for settlement (diameter: about 5 cm) were made, and then, the spray solution prepared in the above was sprayed onto the planting holes such that the spraying amount was 0.25 g/m^2 (150 L/10 a), followed by air-drying. Then, seedlings of Chinese cabbage (cultivar: Yumebuki) grown for 4 weeks in a cell tray (128 holes/nursery box) were planted such that 34 to 40 seedlings were planted in one test plot having an area of 4.8 m^2 with three replications.
The degree of disease incidence was examined for all the plants in each test plot 50 days after the start of the test, and the disease severity and the disease control value were evaluated. Incidentally, the disease severity and the disease control value were obtained in the same manner as described above.

[4] abbreviates: 250 g ai/10 a, 150 L/10a onto cultivation soil, Musou, Average of replications.
Setting [5] is: with mulch-sheet for agricultural use, Average.
The mark [6] stands for this setting: with mulch-sheet for agricultural use, single replications I-II.
Where [7] appears, read: without mulch-sheet for agricultural use, Average.
[8] abbreviates: 150 L/10 a onto planting holes, Yumebuki, Average of replications.
[9] abbreviates: 1/1000 dilution, foliage application twice, Musou, Average of replications.

In the case of `O=[N+]([O-])c1cc(C(F)(F)F)c(Cl)c([N+](=O)[O-])c1Nc1ncc(C(F)(F)F)cc1Cl` [Fluazinam, 3-chloro-N-(3-chloro-5-trifluoromethyl-2-pyridyl)-alpha,alpha,alpha-trifluoro-2,6-dinit ro-p-toluidine], the Disease incidence rate is 13.3 in the assay with Chinese cabbage soft rot [1] (setting [4]); 16.7 and 13.3 and 10.0 in the assay with Chinese cabbage soft rot [1] (250 g ai/10 a, 150 L/10a sprayed onto cultivation soil before mulch-sheet, cultivar Musou, single replications I-III); 31.2 in the assay with Chinese cabbage soft rot [2] (setting [5]); 23.5 and 38.9 in the assay with Chinese cabbage soft rot [2] (setting [6]); 28.9 in the assay with Chinese cabbage soft rot [2] (setting [7]); 45.4 with Chinese cabbage soft rot [3] (setting [8]). Further, the Disease incidence rate with Chinese cabbage soft rot [3] (150 L/10 a sprayed onto planting holes of mulch-sheet, cultivar Yumebuki, single replications I-III) is 55.0 and 37.5 and 43.6. For the same molecule, the Disease severity in the assay on Chinese cabbage soft rot [1] (setting [4]) is 6.4; in the assay with Chinese cabbage soft rot [1] (250 g ai/10 a, 150 L/10a onto cultivation soil, Musou, single replications I-III), 5.0 and 8.3 and 5.8; in the assay with Chinese cabbage soft rot [2] (setting [5]), 8.5; with Chinese cabbage soft rot [2] (setting [6]), 5.9 and 11.1; in the assay on Chinese cabbage soft rot [2] (setting [7]) it was 8.6; with Chinese cabbage soft rot [3] (setting [8]) it was 16.4. Moreover, the Disease severity in the assay with Chinese cabbage soft rot [3] (150 L/10 a onto planting holes, Yumebuki, single replications I-III) is 19.4 and 13.1 and 16.7. The Disease control value was 81.7 in the assay with Chinese cabbage soft rot [1] (250 g ai/10 a, 150 L/10a onto cultivation soil, Musou); 73.1 in the assay with Chinese cabbage soft rot [2] (with mulch-sheet for agricultural use); 72.8 with Chinese cabbage soft rot [2] (without mulch-sheet for agricultural use); 66.4 in the assay with Chinese cabbage soft rot [3] (150 L/10 a onto planting holes, Yumebuki, vs untreated plot). The “Control effect on Chinese cabbage soft rot (in words)” value in the assay with Chinese cabbage soft rot [1] is “a control effect on Chinese cabbage soft rot was observed”. Besides, the “Control effect without mulch-sheet compared with treated plot covered with mulch-sheet (in words)” value with Chinese cabbage soft rot [2] (Table 5 test, moderate incidence conditions) is “substantially equal”.

In the assay with Chinese cabbage soft rot [1] (setting [9]), `[H]/N=C(/N)N[C@H]1[C@H](O)[C@@H](O)[C@H](O[C@@H]2O[C@@H](C)[C@](O)(C=O)[C@H]2O[C@@H]2O[C@@H](CO)[C@H](O)[C@@H](O)[C@@H]2NC)[C@@H](N/C(N)=N\[H])[C@@H]1O` [Streptomycin, streptomycin] came in with a Disease incidence rate of 60.0 and a Disease severity of 37.8. The molecule also gave a Disease control value in the assay with Chinese cabbage soft rot [1] (1/1000 dilution, foliage application twice, Musou) of 0. The “Control effect on Chinese cabbage soft rot (in words)” value in the assay with Chinese cabbage soft rot [1] is “not observed at all”.
